Experimental data as given in patent USRE47528E1, “Protease for wound conditioning and skin care” (B.R.A.I.N. BIOTECHNOLOGY RESEARCH AND INFORMATION NETWORK AG, priority 2009, dated 2019).
“Also recorded” adds a separate entry of the source.

How the values were obtained:
larval secretions = conditions: cited from earlier work
debrilase = test: Liquid phase activity assay and inhibitory profiling (BODIPY-FL-Casein fluorescence assay); format: biochemical, Lucilia sericata; conditions: for inhibition of debrilase activity: PMSF 5 mmol/l, APMSF 1 mmol/l
Method: Quantification of proteolytic activity was conducted by a fluorescence assay in 96-well plates with BODIPY-FL-Casein (Molecular Probes) used as substrate. Hereby, on the undigested substrate casein the labelling molecules are in close contact to each other and therefore fluorescence is suppressed by a quenching mechanism. In case of hydrolysis these molecules separate from each other and fluorescence can be excited at 485 nm and measured at 520 nm.
A standard assay contained 5 μg/ml BODIPY-FL-Casein in 100 μl PBS buffer and a series of dilutions of protease extract. Samples were incubated for 60 min at 37° C. and fluorescence was measured using a spectrophotometer (NovoStar, BMG LABTECH, Offenburg, Germany), applying the following parameters: excitation 485 nm, emission 520 nm, gain 5, one cycle, 10 flashes. Serine protease inhibitors APMSF (4-amidinophenylmethanesulfonyl fluoride) and PMSF (phenylmethanesulfonyl fluoride) were used for testing the specificity of the isolated protease. The following assay concentration were used:
The recombinant protease type was identified in a liquid assay in a 96-well plate using inhibitors specific for different types of proteases. Herein, specific inhibitors for trypsin (4-amidinophenylmethyl-sulphonyl fluoride, APMSF), serine (phenylmethylsulphonyl fluoride, PMSF), aspartyl-(pepstatin A) and metallo-type proteases (1,10-phenanthroline) were measured.

[1] = test system: Lucilia sericata debrilase (trypsin-like serine protease), mature protein SEQ ID NO: 4, pre-propeptide SEQ ID NO: 2; test: Enzyme kinetics of Debrilase, fluorometric assay with Z-Gly-Gly-Arg-AMC; format: biochemical
Method: (§1) Activity of the debrilase was measured in liquid assay using appropriate buffer systems in the range of 3-10 (0.1 to 0.2 M citric acid buffer, pH 3-7; 0.05 M tris buffer, pH 8; 0.1 M carbonate buffer, pH 9-10) and the fluorogenic substrate Z-Gly-Gly-Arg-AMC. The release of 7-amino-4-methylcoumarin (AMC) was measured with a BMC Novostar Fluorometer (λexcitation 365 nm, λemission 440 nm).
Molecular and Enzymatic Properties of Debrilase

casein = test: Diffusion assay on agar containing casein / skim milk; format: biochemical
Source text: FIG. 1: Diffusion assay on agar containing casein showing a clearing zone around a debrilase secreting clone of E. coli.
Colony forming units resulted from mass excision described above were screened on agar media containing 2% skim milk under selective conditions. Expression of heterologous proteases was driven by the vector comprising inducible Plac promoter. Colonies expressing heterologous proteases were detected by the formation of clearing zones in the turbid Skim Milk medium around the colonies.

fibrin = test: Solid phase activity assay for fibrinolytic activity (fibrin agar); format: biochemical; conditions: fibrin containing agar
Method: To identify fibrinolytic activity in extracts of casein degrading clones a solid agar assay was used. For this, a solution A containing 200 mg agarose, 87 mg NaCl and 3 mg CaCl2 were added to 10 ml 0.1 M Tris pH7.4 and incubated at 50° C. To a second solution B containing 10 ml 0.9% NaCl and 100 mg Fibrin (Sigma F3879), 20 μl Plasminogen (2 units/mg, Sigma P7397) e added and pre-incubated at 50° C. Both solutions were combined with 12 μl Thrombin (175-350 NIH units, Sigma T4265) and spread on agar plates using micro-well forming devices. In case of a fibrinolytic activity a clear zone appears in the opaque medium around extract containing cavities.
To identify fibrinolytic activity in casein degrading clones a solid agar assay was used. Therefore a medium A consisting of 10 ml 2× Luria Bertani containing 200 mg agarose, 87 mg NaCl and 3 mg CaCl2 was incubated at 50° C. To a solution B containing 10 ml 0.9% NaCl and 100 mg Fibrin (Sigma F3879), 20 μl plasminogen (2 units/mg, Sigma P7397) was added and pre-incubated at 50° C. […]
Fibrinolytic activity in cell free crude extracts was determined using buffered agar medium containing fibrin. […] Crude extract with fibrinolytic activity was detected by a clear zone around microwells of the recombinant clone harbouring the protease gene of SEQ ID NO. […]

Z-Gly-Gly-Arg-AMC = test: Fluorometric liquid assay using Z-Gly-Gly-Arg-AMC as substrate; format: biochemical
Method: as §1

human PAR2 = molecular target: T1, human PAR2 (Homo sapiens, UniProt P55085); test: Activation of PAR 2 (calcium imaging) in HEK293 cells; format: cell-based; conditions: HEK293 cells endogenously expressing human PAR2, Ca2+-flux read-out
T1 construct: wild type HEK293 cell line endogenously expressing human PAR2; endogenous in cells; host or cells: HEK293
T1 sequence (P55085 26-397): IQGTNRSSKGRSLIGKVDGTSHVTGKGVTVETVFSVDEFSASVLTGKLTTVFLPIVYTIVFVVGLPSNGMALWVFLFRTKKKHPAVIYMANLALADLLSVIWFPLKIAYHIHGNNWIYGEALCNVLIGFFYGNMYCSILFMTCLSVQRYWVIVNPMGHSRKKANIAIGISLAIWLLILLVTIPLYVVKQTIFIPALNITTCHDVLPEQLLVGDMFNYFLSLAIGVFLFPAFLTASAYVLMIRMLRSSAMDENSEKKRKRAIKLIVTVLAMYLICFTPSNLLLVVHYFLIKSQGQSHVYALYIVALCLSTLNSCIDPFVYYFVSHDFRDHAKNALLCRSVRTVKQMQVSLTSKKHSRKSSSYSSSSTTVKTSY
Method: The activity of debrilase as agonist of PAR 2 was monitored over time in a cell based fluorescence assay by use of a wild type HEK293 cell line endogenously expressing human PAR2. In brief, 1 day prior to performing the assay, HEK293 cells expressing human PAR2 were plated onto 96-well, black-walled, assay plates, at a density of 45,000 cells per well. Using a 96-well microplate reader (FlexStation®, Molecular Devices, Sunnyvale, Calif.), the change of the cellular calcium concentration was monitored by use of the calcium sensitive fluorescent dye fluo-4 (excitation 494 nm, emission 516 nm). The PAR 2 agonist trypsin (8 nM) was used as positive control. The dye-loaded cells in plates were placed into the fluorescence microplate reader to monitor fluorescence (excitation 488 nm, emission 520 nm) change after the addition of 50 μl assay buffer (118 mM NaCl; 4.7 mM KCl; 1.2 mM MgSO4; 1.2 mM KH2PO4 4.2 mM […]; 1.3 mM CaCl2; 10 mM HEPES (pH: 7.4)) supplemented with an agonist. Calcium mobilization was quantified as the change of peak fluorescence (ΔF) over the baseline level (F). Data were expressed as the mean S.E. of the ΔF/F value (=RFU, relative fluorescence units) of replicated independent samples. The analysis was done with the software of the FlexStation®.

Tosyl-Gly-Pro-Arg-AMC = test: Proteolytic activity against Tosyl-Gly-Pro-Arg-AMC; format: biochemical
Suc-Ala-Ala-Phe-AMC = test: Proteolytic activity against Suc-Ala-Ala-Phe-AMC; format: biochemical

Molecule: c1cnc2c(c1)ccc1cccnc12 [1,10-phenanthroline]
- inhibition of degradation of laminin and fibronectin by larval secretions (larval secretions): not significantly

Molecule: N=C(N)c1ccc(CS(=O)(=O)F)cc1 [APMSF, 4-amidinophenylmethanesulfonyl fluoride]
- inhibition of proteolytic activity of debrilase against casein and fibrin (debrilase): inhibited
- inhibition of debrilase activity (debrilase): inhibited completely
- inhibition of degradation of laminin and fibronectin by larval secretions (larval secretions): not significantly

Molecule: O=S(=O)(F)Cc1ccccc1 [PMSF, phenylmethanesulfonyl fluoride]
- inhibition of proteolytic activity of debrilase against casein and fibrin (debrilase): inhibited
- inhibition of debrilase activity (debrilase): inhibited completely
- inhibition of degradation of laminin and fibronectin by larval secretions (larval secretions): inhibited

Molecule: Cc1cc(=O)oc2cc(NC(=O)[C@H](CCCNC(=N)N)NC(=O)CNC(=O)CNC(=O)OCc3ccccc3)ccc12 [Z-Gly-Gly-Arg-AMC]
- Kcat ([1]; Table 1, substrate Z-Gly-Gly-Arg-AMC (footnote)): 37.5 s⁻¹
- Km ([1]; substrate Z-Gly-Gly-Arg-AMC, fluorometric assay): 70 µM

B1: debrilase: recombinant trypsin-like serine protease from Lucilia sericata; mature protein SEQ ID NO: 4 (protein, listed as Lucilia sericata)
chain: IVNGVDTTIQAHPYQVSLQTNNGFHFCGGSIISEDIIVTAAHCMQSYKAYQFKVRLGSTEYDNGGELVAVKSFKYHEGYNPETMVNDVAVIKLATPVRESSKVRYVKLAEKTPATGTPAVVTGWGSKCFLFCQTAPKVLQKVEVDIVDEKTCASSEYKYGDDIKETMLCAYAVKKDACQGDSGGPLVANNKLVGVVSWGKGCALAGYPGVYCDVATVRSWIEKTAKSL
- caseinolytic activity (cleavage of casein) (casein): clearing zone; also recorded: ability to cleave fibrin and casein; also recorded: exhibits proteolytic activity against fibrin, casein
- fibrinolytic activity (cleavage of fibrin) (fibrin): clearing zone; also recorded: ability to cleave fibrin; also recorded: exhibits proteolytic activity against fibrin
- Topt (Z-Gly-Gly-Arg-AMC): 37 °C
- pHopt (Z-Gly-Gly-Arg-AMC): 8
- pH-range of enzymatic activity (Z-Gly-Gly-Arg-AMC; buffer systems in the range of pH 3-10, Z-Gly-Gly-Arg-AMC): 5-10 pH
- specific activity (Z-Gly-Gly-Arg-AMC; fluorometric assay using Z-Gly-Gly-Arg-AMC as substrate): 90 μmol* · min^−1 · mg^−1 enzyme
- activation of protease-activated receptor 2 (PAR 2) (human PAR2): activates the protease-activated receptor PAR-2
- proteolytic activity against Tosyl-Gly-Pro-Arg-AMC (Tosyl-Gly-Pro-Arg-AMC): exhibits proteolytic activity against fibrin, casein and Tosyl-Gly-Pro-Arg-AMC
- proteolytic activity against Suc-Ala-Ala-Phe-AMC (Suc-Ala-Ala-Phe-AMC): not against Suc-Ala-Ala-Phe-AMC
